Values of other authors in patent US20040071685A1, “Compositions and methods for increasing the bioavailability of plant polyphenols” (priority 2002, published 2004).

Assays:
[1] = rats, oral, 700 μM/kg body weight
[2] = adults
[3] = system: alpha-glucosidase (invertase)
[4] = rats, 15 μM administered in the stomach in situ, after 30 minutes

Structure (SMILES)	volume of distribution [2]	amount remaining in the stomach [4]	other results
O=C(O)/C=C/c1ccc(O)c(O)c1 [caffeic acid]			maximum serum level of conjugates [1]: 0.64 µM; time of maximum serum levels [1]: 2 h
O=c1c(-c2ccc(O)cc2)coc2cc(O)ccc12 [daidzein]	large		
O=c1c(-c2ccc(O)cc2)coc2cc(O)cc(O)c12 [genistein]	large		type of inhibition [3]: reversible, slow-binding, non-competitive inhibitor
O=c1c(O[C@@H]2O[C@H](CO)[C@@H](O)[C@H](O)[C@H]2O)c(-c2ccc(O)c(O)c2)oc2cc(O)cc(O)c12 [isoquercitrin]		15 µM	
O=c1c(O)c(-c2ccc(O)c(O)c2)oc2cc(O)cc(O)c12 [quercetin]		8.6 µM	amount found in the bile samples [4]: 4.1 µM
C[C@@H]1O[C@@H](OC[C@H]2O[C@@H](Oc3c(-c4ccc(O)c(O)c4)oc4cc(O)cc(O)c4c3=O)[C@H](O)[C@@H](O)[C@@H]2O)[C@H](O)[C@H](O)[C@H]1O [rutin]		15 µM	
